Results as given in patent publication US20260193242A1, “USEFUL COMPOUNDS FOR MODULATING INFLAMMATION” (FLAGSHIP PIONEERING INNOVATIONS VI, LLC, priority 2022, published 2026).

How the values were obtained:
[1] = system: R848-driven IRF reporter (Lucia luciferase, ISG54 promoter/IFN-stimulated response elements) in THP-1 cells; experiment: TLR7/8 (R848) stimulated interferon response element reporter gene assay in THP1-Dual cells; assay type: cell-based; details: Homo sapiens, THP-1, 10 μM compound, 1 μM R848, THP1-Dual cells; read-out: R848-driven IRF reporter gene assay (Percent inhibition at 10 μM)
Description: (§1) Compounds described herein are added to the human leukemic monocyte-like cell line THP-1 for bioactivity assessment. THP1-Dual cells (InvivoGen, San Diego, CA) feature the Lucia gene, a secreted luciferase reporter gene, under the control of an ISG54 minimal promoter in conjunction with five IFN-stimulated response elements. THP1-Dual cells also express a secreted embryonic alkaline phosphatase (SEAP) reporter gene driven by an IFN-β minimal promoter fused to five copies of the NF-κB consensus transcriptional response element and three copies of the c-Rel binding site. As a result, THP1-Dual cells allow the simultaneous study of the NF-κB pathway, by monitoring the activity of SEAP, and the IRF pathway, by assessing the activity of Lucia luciferase.
(§2) THP-1 dual reporter cells were grown in RPMI 1640 culture medium with 2 mM L-glutamine, 25 mM HEPES, 10% heat-inactivated fetal bovine serum, 100 μg/ml Normocin antibiotic (InvivoGen), Pen-Strep antibiotic (100 U/ml-100 μg/ml, InvivoGen). On the day of the assay, cells were seeded in a 384 flat-bottom well plate at 25,000 cells/well and incubated for 2 hours. Cells were then incubated with 10 μM of the compounds described herein or with 1 μM of IKK-16 (Selleck), a potent inhibitor of IκB kinases (IKKs) or with DMSO (vehicle control) for 2 hours, followed by the addition of the synthetic TLR7/8 agonist R848 at 1 μM and incubation for 16 hours. After incubation was concluded, the cultures supernatants were collected and IRF related activity was assessed by measurement of the Lucia luciferase, using Quanti-Luc assay (InvivoGen). NF-κB pathway activity was assessed by quantifying SEAP using Quanti-Blue assay (InvivoGen).

[2] = system: R848-driven NFκB reporter (SEAP) in THP-1 cells; experiment: TLR7/8 (R848) stimulated NFκB reporter gene assay in THP1-Dual cells; assay type: cell-based; details: Homo sapiens, THP-1, 10 μM compound, 1 μM R848, THP1-Dual cells; read-out: R848-driven NFκB reporter gene assay (Percent inhibition at 10 μM)
Description: as §1, §2

[3] = system: TNBS-induced colitis, Balb/c mice; experiment: TNBS-induced model of colitis in mice, dosing from day -1, prophylactic mode; assay type: in vivo
Description: (§3) Female Balb/c mice aged 8 weeks and weighing 18-20 g were housed under standard conditions. The mice were divided into groups with 8-10 mice in each group by body weight. Mice in sham group received intracolonic injection with 50% ethanol (0.1 mL) at day 0, whereas mice in other Trinitrobenzene sulfonic acid (TNBS) colitis model groups received intracolonic injection of 2% TNBS solution in ethanol (0.1 mL) at day 0. The reference compound Mesalazine (Selleck) and test articles described here were dosed from day-1 to day 6. Day 6 was the endpoint, and samples were immediately harvested for the last endpoint. Mesalazine was dissolved in distilled water (pH 7.0) and test articles were dissolved in Phosal 50 PG for delivery by oral gavage.
As noted, dosing of the compounds described herein, as well as the positive control mesalamine, began one day before TNBS administration. Animals in this scenario have not yet developed colitis symptoms before administration of test articles. For this reason, we refer to these conditions as “prophylactic mode”.
(§4) Body weight and Disease Activity Index (DAI) scores were recorded daily to assess the colitis. DAI score was the sum of the weight loss score, stool score and bleeding sub-scores. A blinded scoring system was employed to assess the colitis. The DAI scorer blinded to the group information and animal ID was responsible for the stool consistency and bleeding evaluations. If there was no blood visible with naked eyes, the Fecal occult blood (FOB) test was performed with a fecal occult blood test strip (the improved pyramidon method).
(§5) Colon tissue morphology, damage and healing were assessed by histopathology. The colons were harvested, mesentery and adipose tissue were carefully removed, and internal contents were removed by rinsing with cold PBS. The colons were Swiss-rolled and fixed in neutralized paraformaldehyde followed by H&E staining. Clinical pathologists reviewed the H&E staining and scored blinded with animal ID. The pathological scoring standards were: crypt architecture (normal, 0-severe crypt distortion with loss of entire crypts, 3), degree of inflammatory cell infiltration (normal, 0-dense inflammatory infiltrate, 3), muscle thickening (base of crypt sits on the muscularis mucosae, 0-marked muscle thickening present, 3), goblet cell depletion (absent, 0-present, 1) and crypt abscess (absent, 0-present, 1).
The plasma was collected at Day-1 for PK and cytokine (IL-1ß and IL-6) analysis by mandibular venipuncture.
(§6) The data was compared by ANOVA with post-hoc Dunnett's multiple comparisons test using Graph Pad Prism 7.0 software (San Diego, CA, USA). P-value<0.05 was considered as statistically significant difference. For pairwise comparison of histology scores and cytokines, unpaired t-test was used to calculate statistical significance. Data was expressed as mean±standard error of mean. In figures, statistical significance is denoted by asterisks: *p<0.05 **p<0.01 ***p<0.005, ****p<0.0001.

[4] = system: TNBS-induced colitis, Balb/c mice; experiment: TNBS-induced model of colitis in mice, dosing from day 2, therapeutic mode; assay type: in vivo
Description: as §3, §4, §5, §6
Procedures were identical to those in Example 26, except that dosing of the compounds described herein, as well as the positive control mesalamine, began on the second day after TNBS administration, as diagrammed in FIG. 18. Animals in this scenario have developed colitis symptoms before administration of test articles. This is more similar to the clinical scenario with patients with inflammatory bowel disorder presenting with symptoms. For this reason, we refer to these conditions as “therapeutic mode”.

[5] = 1, 3 and 10 mg/kg PO, QD, vs Vehicle group
[6] = 30 mg/kg PO, QD, dosing from day 2
[7] = 30 mg/kg PO, QD, dosing from day 2, vs Vehicle group

Structure (SMILES): CN1[C@@H](C(=O)O)CC[C@H]1[C@@H]1CSC(c2ccccc2O)=N1 [Compound I-4, (2R,5S)-5-((R)-2-(2-hydroxyphenyl)-4,5-dihydrothiazol-4-yl)-1-methylpyrrolidine-2-carboxylic acid]
- inhibition at 10 µM [1]: ≥ 50%
- inhibition at 10 µM [2]: ≥ 50%
- body weight (% initial weight) recovery ([3]; 30 mg/kg, PO, QD, day -1 to day 6): faster recovery rate
- total histology scores ([3]; 1, 3 and 10 mg/kg PO, QD): lower
- Disease Activity Index (DAI) scores ([3]; 1, 3 and 10 mg/kg PO, QD, day -1 to day 6): dose-dependent improvement
- IL-1ß in plasma [3, 5]: decreased
- IL-6 in plasma [3, 5]: decreased
- pathological score (crypt structure failure, inflammatory cell infiltration) ([3]; 1, 3 and 10 mg/kg PO, QD, H&E colon): lower
- ED50 ([3]; Mus musculus, 144 h, PO, QD, day -1 to day 6, read-out: dose for half maximal effect or ED50 (DAI score at Day 6)): 15 mg/kg
- colon recovery and mucosal healing ([3]; in a dose-dependent manner, prophylactic mode): promoted the colon recovery and mucosal healing
- Disease Activity Index (DAI) scores [4, 6]: improvement
- body weight (% initial weight) recovery [4, 6]: faster recovery rate
- total histology scores [4, 6]: lower
- IL-1B in plasma [4, 7]: decreased
- IL-6 in plasma [4, 7]: decreased
- colon recovery and mucosal healing ([4]; therapeutic mode): promoted the colon recovery and mucosal healing
